# Test results published in EP4714938A1, “HDAC1/2 SELECTIVE INHIBITOR AND USE THEREOF” (Wigen Biomedicine Technology (Shanghai) Co., Ltd., priority 2023, dated 2024).
# Read-outs that look alike come from different tables or passages of the source.
# Legend:
# [1] = biological target: T1, HDAC11 (Homo sapiens, UniProt Q96DB2); assay: HDAC enzyme inhibitory activity, FRET method; assay type: biochemical; conditions: Table 6; read-out: IC50 HDAC subtype 11
# T1 sequence (Q96DB2 1-347): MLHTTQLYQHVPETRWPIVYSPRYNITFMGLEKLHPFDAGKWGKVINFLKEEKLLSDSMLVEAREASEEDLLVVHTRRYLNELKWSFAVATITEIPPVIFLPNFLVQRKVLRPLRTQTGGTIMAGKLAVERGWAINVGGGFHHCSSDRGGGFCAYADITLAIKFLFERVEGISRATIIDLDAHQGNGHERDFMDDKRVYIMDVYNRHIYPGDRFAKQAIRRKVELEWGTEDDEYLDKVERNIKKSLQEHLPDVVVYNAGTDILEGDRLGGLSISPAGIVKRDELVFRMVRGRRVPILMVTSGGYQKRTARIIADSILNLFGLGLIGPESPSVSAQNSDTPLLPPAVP
# Experimental: (§2) The compounds of the present disclosure were assayed for enzyme inhibitory activity against various subtypes of HDAC enzymes by the FRET method. The various subtypes of HDAC enzymes were obtained either through purification or direct purchase of assay kits.
# (§3) The specific method was as follows: The enzyme was added to a 384-well plate, and a reaction buffer was added to the control well. Serially diluted DMSO sample solutions were added to the reaction wells, and the plate was incubated at room temperature for 15 min. Then a chromogenic agent was added to stop the reaction, and fluorescence was generated. The fluorescence intensity was measured using an EnVision multi-label microplate reader (excitation: 355 nm, emission: 460 nm). The endpoint value was read after the color development reached stability. The inhibition IC50 of the compounds was calculated using GraphPad Prism4 software relative to DMSO.
# [2] = test system: Mouse colon cancer MC38 cells; conditions: MC-38
# Experimental: Female C57BL6N mice (aged 6 weeks, 18-22 g) were provided by Vital River Laboratory Animal Technology Co., Ltd. (China) and used one week after quarantine and acclimation. All animals were kept in a room at 23±2 °C with a relative humidity of 50±5%, artificial lighting was provided from 08:00 to 20:00 every day, and the air was exchanged 13-18 times per hour.
# Mouse colon cancer MC38 cells were cultured conventionally in 1640 medium containing 10% fetal bovine serum in an incubator at 37 °C with 5% CO2. After being subcultured, the cells were collected when they reached the desired amount. The C57BL6N mice were subcutaneously injected with 2 × 10^6 MC38 cells on the right side to form tumors. After the tumors grew to about 100 mm^3, the animals were randomly grouped for administration. Tumor volumes were measured with a caliper on day 3, day 7, day 10, day 14, day 17, and day 21 after the administration. The ability of the compounds to inhibit tumor growth was evaluated according to the tumor growth inhibition rate (TGI) = 1 - (tumor volume on day 28 in treatment group - tumor volume on day 1 in treatment group)/(tumor volume on day 28 in control group - tumor volume on day 1 in control group). The toxicity of the compounds was evaluated according to the body weight and state of the mice.
# The groups were as follows: 1) solvent control group; 2) PD-1+Reg group; 3) Compound 1 group; 4) Reference Compound group; 5) compound 1 (10mg/kg) and PD-1+Reg Combination group; 6) compound 1 (30mg/kg) and PD-1+Reg Combination group; 7) compound 1 (90mg/kg) and PD-1+Reg Combination group; 8) Reference Compound (10mg/kg) and PD-1+Reg Combination group; 9) Reference Compound (30mg/kg) and PD-1+Reg Combination group; 10) Reference Compound (90mg/kg) and PD-1+Reg Combination group, with 6 mice per group.
# Reg represents Regorafenib PD-1 represents an anti-PD-1 antibody; IV represents administration via intravenous injection; PO represents oral administration; QD represents once-daily administration; QW represents once-weekly administration; CR represents complete remission (complete disappearance of the tumor after the dosing cycle is completed); PR represents partial response (tumor volume reduction exceeding 30% relative to the initial volume upon completion of the administration cycle); SD represents stable disease (tumor volume reduction or growth not exceeding 30% relative to the initial volume upon completion of the administration cycle); Died represents mouse died before the dosing cycle is completed; Administration period* is once daily (QD) for 10 consecutive days, followed by a 16-day off-treatment period; the once-weekly (QW) regimen is administered only on Day 1 and Day 8.
# [3] = test system: Acetyl lysine; assay: Intracellular acetyl lysine level by ELISA in HeLa cells; assay type: cell-based; conditions: 24 h of treatment
# Experimental: (§1) HeLa cells were seeded into a 96-well plate at 20000 cells/well. After overnight adherence culture, the serially diluted compound was added. After 24 h of treatment, intracellular levels of acetyl lysine and H3K 27 acetyl lysine were quantified by ELISA. Table 8. Effect of compound of the present disclosure on levels of acetyl lysine and H3K 27 acetyl lysine
# [4] = biological target: HDAC4 (Homo sapiens, UniProt P56524); assay: HDAC enzyme inhibitory activity, FRET method; assay type: biochemical; conditions: Table 6; read-out: IC50 HDAC subtype 4
# Chain of HDAC4 (P56524 whole entry, species assumed): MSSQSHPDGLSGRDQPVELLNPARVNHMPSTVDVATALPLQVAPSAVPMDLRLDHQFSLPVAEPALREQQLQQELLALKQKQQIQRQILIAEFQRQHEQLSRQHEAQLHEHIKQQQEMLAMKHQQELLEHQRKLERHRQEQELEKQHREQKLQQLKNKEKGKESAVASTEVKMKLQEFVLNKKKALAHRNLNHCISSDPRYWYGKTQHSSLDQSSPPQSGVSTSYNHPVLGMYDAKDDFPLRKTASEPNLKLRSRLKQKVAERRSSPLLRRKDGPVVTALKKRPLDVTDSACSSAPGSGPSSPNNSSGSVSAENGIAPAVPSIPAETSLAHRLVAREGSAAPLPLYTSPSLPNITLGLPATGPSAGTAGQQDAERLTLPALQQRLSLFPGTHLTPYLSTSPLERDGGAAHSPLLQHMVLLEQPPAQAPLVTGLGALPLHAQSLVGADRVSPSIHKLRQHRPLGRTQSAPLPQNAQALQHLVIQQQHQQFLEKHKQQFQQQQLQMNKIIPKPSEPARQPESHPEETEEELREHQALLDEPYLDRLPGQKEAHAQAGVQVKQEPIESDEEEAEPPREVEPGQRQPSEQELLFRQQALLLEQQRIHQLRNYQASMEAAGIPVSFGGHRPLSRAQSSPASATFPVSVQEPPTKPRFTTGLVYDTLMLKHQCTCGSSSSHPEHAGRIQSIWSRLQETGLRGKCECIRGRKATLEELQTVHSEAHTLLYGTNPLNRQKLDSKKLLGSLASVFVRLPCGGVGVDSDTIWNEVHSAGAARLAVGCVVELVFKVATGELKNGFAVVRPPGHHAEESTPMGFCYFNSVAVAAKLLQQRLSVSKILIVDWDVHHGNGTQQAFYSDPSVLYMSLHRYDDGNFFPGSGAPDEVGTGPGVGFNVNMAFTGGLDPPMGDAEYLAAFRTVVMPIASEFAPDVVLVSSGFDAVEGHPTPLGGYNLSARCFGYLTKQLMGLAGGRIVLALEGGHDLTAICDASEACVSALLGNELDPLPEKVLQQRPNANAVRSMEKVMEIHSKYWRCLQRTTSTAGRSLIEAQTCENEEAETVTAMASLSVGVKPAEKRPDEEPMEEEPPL
# Experimental: as §2, §3
# [5] = test system: H3K 27 Acetyl lysine; assay: Intracellular H3K 27 acetyl lysine level by ELISA in HeLa cells; assay type: cell-based; conditions: 24 h of treatment
# Experimental: as §1
# [6] = biological target: HDAC1 (Homo sapiens, UniProt Q13547); assay: HDAC enzyme inhibitory activity, FRET method; assay type: biochemical
# Chain of HDAC1 (Q13547 whole entry, species assumed): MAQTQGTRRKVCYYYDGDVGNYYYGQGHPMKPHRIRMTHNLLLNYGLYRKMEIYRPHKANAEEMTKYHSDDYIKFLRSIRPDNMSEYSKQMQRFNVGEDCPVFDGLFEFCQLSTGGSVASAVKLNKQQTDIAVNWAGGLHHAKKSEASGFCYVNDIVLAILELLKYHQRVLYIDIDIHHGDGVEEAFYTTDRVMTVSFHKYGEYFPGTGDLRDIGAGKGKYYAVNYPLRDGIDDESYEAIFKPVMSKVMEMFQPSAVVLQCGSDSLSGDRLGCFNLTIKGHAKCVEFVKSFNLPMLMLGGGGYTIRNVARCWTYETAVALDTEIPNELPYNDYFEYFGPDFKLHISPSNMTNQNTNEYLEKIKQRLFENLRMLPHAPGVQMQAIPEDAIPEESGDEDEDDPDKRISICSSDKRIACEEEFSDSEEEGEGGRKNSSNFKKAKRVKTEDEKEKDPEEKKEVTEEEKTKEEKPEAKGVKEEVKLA
# [7] = test system: Mouse colon cancer CT-26 cells; conditions: for Tumor response, number of mice (CR/PR/SD): 6 mice per group; for TGI(%): QD for 14 consecutive days, PO
# Experimental: Female BALB/c mice (aged 6 weeks, 18-22 g) were provided by Vital River Laboratory Animal Technology Co., Ltd. (China) and used one week after quarantine and acclimation. All animals were kept in a room at 23±2 °C with a relative humidity of 50±5%, artificial lighting was provided from 08:00 to 20:00 every day, and the air was exchanged 13-18 times per hour.
# Mouse colon cancer CT-26 cells were cultured conventionally in 1640 medium containing 10% fetal bovine serum in an incubator at 37 °C with 5% CO2. After being subcultured, the cells were collected when they reached the desired amount. The BALB/c mice were subcutaneously injected with 2 × 10^5 CT-26 cells on the right side to form tumors. After the tumors grew to about 100 mm^3, the animals were randomly grouped for administration. Tumor volumes were measured with a caliper on day 3, day 7, day 10, day 14, day 17, and day 21 after the administration. The ability of the compounds to inhibit tumor growth was evaluated according to the tumor growth inhibition rate (TGI) = 1 - (tumor volume on day 28 in treatment group - tumor volume on day 1 in treatment group)/(tumor volume on day 28 in control group - tumor volume on day 1 in control group). The toxicity of the compounds was evaluated according to the body weight and state of the mice.
# [8] = biological target: T2, HDAC8 (Homo sapiens, UniProt Q9BY41); assay: HDAC enzyme inhibitory activity, FRET method; assay type: biochemical; conditions: Table 6; read-out: IC50 HDAC subtype 8
# T2 sequence (Q9BY41 1-377): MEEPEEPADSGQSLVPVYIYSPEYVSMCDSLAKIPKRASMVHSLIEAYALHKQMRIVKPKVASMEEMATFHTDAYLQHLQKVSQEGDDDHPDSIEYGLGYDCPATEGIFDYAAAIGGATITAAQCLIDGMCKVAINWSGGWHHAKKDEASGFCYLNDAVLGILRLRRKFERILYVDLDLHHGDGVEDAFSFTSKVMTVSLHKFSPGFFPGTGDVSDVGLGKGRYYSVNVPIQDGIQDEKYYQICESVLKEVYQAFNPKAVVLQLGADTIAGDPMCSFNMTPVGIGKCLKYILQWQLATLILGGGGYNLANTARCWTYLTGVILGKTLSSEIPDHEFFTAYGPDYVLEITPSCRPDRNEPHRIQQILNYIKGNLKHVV
# Experimental: as §2, §3
# [9] = biological target: HDAC3 (Homo sapiens, UniProt O15379); assay: HDAC enzyme inhibitory activity, FRET method; assay type: biochemical
# Chain of HDAC3 (O15379 whole entry, species assumed): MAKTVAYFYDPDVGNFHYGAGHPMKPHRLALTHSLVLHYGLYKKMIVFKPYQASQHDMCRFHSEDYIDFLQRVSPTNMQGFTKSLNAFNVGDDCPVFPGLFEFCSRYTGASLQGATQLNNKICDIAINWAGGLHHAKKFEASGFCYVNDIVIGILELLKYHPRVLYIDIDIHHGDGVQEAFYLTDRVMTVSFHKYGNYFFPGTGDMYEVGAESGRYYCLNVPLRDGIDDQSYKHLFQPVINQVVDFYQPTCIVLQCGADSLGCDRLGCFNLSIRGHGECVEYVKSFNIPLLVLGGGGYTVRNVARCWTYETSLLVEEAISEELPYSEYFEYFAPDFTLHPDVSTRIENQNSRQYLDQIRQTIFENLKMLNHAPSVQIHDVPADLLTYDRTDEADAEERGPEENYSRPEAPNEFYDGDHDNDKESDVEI
# Chain of HDAC3 (Q9Y618 395-489 partner limits assumed, species assumed): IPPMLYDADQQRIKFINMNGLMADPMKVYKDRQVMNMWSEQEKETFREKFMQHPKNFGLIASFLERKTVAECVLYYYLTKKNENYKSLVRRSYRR
# Experimental: as §2, §3
# [10] = biological target: HDAC2 (Homo sapiens, UniProt Q92769); assay: HDAC enzyme inhibitory activity, FRET method; assay type: biochemical
# Chain of HDAC2 (Q92769 whole entry, species assumed): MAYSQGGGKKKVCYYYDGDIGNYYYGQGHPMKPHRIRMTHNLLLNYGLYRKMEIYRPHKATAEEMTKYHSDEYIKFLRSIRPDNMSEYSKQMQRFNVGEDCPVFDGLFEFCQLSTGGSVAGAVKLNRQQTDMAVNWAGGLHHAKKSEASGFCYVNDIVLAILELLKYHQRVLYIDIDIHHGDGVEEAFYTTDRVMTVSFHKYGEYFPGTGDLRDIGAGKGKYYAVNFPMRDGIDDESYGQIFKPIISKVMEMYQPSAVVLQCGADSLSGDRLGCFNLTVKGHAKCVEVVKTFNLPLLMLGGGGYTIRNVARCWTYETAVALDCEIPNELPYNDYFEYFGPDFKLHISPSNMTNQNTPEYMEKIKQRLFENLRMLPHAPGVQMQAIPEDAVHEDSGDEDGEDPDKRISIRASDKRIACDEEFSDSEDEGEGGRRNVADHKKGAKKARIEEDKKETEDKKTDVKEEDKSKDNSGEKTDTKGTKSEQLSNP
# Experimental: as §2, §3
# [11] = biological target: HDAC9 (Homo sapiens, UniProt Q9UKV0); assay: HDAC enzyme inhibitory activity, FRET method; assay type: biochemical; conditions: Table 6; read-out: IC50 HDAC subtype 9
# Chain of HDAC9 (Q9UKV0 whole entry, species assumed): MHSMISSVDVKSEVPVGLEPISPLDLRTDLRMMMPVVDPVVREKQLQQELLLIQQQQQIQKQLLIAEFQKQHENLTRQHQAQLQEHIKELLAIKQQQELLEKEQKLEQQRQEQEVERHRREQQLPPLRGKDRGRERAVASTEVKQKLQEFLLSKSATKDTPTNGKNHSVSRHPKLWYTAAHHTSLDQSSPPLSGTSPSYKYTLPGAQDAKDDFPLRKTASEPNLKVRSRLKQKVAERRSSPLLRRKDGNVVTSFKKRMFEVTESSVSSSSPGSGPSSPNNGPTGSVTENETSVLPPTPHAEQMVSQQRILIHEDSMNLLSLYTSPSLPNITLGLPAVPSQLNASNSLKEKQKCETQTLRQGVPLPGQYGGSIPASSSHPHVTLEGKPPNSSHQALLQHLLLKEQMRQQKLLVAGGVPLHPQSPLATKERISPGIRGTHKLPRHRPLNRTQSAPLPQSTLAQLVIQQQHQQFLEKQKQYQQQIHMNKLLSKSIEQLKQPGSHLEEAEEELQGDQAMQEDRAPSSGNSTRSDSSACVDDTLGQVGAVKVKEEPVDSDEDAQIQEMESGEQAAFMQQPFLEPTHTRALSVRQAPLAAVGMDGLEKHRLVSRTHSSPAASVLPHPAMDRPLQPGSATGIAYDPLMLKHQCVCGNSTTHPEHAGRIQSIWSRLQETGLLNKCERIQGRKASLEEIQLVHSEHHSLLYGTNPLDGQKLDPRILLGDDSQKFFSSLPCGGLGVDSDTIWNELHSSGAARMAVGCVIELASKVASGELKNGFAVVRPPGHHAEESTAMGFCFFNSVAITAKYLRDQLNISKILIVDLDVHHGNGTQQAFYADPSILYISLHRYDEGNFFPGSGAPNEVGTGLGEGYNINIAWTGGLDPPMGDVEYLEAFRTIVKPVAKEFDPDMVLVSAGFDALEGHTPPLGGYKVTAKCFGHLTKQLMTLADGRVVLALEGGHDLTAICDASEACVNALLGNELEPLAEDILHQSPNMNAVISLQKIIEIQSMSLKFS
# Experimental: as §2, §3
compound,measurement,setting,value
"CS(C)(=O)=Nc1ccc(C(=O)Nc2cc(-c3ccc(F)cc3)ccc2N)cc1 [Compound 1, N-(4-Amino-4'-fluoro-[1,1'-biphenyl]-3-yl)-4-((dimethyl(oxo)-1^λ-6-sulfaneylidene)amino)benzamide]",IC50,[1],> 30000 nM
same,Change in body weight(%),[2]; monotherapy 90 mg/kg QD PO,11.08 ± 1.08%
same,"Tumor response, number of mice (CR/PR/SD)","[2]; monotherapy 90 mg/kg QD PO, CR complete remission, PR partial response, SD stable disease, 6 mice per group",5CR
same,TGI(%),"[2]; monotherapy 90 mg/kg, QD for 10 consecutive days, PO",100.54%
same,"complete tumor regression, % of mice",[2]; monotherapy group (5/6),83.3%
same,Acetyl lysine Maximum (%),[3],500%
same,Acetyl lysine Minimum effective concentration,[3],16 nM
same,IC50,[4],> 30000 nM
same,H3K 27 Acetyl lysine Maximum (%),[5],200%
same,H3K 27 Acetyl lysine Minimum effective concentration,[5],80 nM
same,IC50,"[6]; Table 4, read-out: IC50 HDAC1",< 500 nM
same,IC50,"[6]; Table 5, read-out: IC50 HDAC1",< 30 nM
same,IC50,"[6]; Table 6, read-out: IC50 HDAC subtype 1",26.5 nM
same,Change in body weight(%),[7]; monotherapy 30 mg/kg QD PO,1.13+3.79%
same,"Tumor response, number of mice (CR/PR/SD)",[7]; monotherapy 30 mg/kg QD PO,1PR
same,TGI(%),[7]; monotherapy 30 mg/kg,38.57%
same,Change in body weight(%),[7]; monotherapy 90 mg/kg QD PO,-10.53+7.1%
same,"Tumor response, number of mice (CR/PR/SD)",[7]; monotherapy 90 mg/kg QD PO,1PR+1SD
same,TGI(%),[7]; monotherapy 90 mg/kg,88.35%
same,IC50,[8],> 30000 nM
same,IC50,"[9]; Table 4, read-out: IC50 HDAC3",> 5000 nM
same,IC50,"[9]; Table 5, read-out: IC50 HDAC3",> 3000 nM
same,IC50,"[9]; Table 6, read-out: IC50 HDAC subtype 3",5510 nM
same,IC50,"[10]; Table 4, read-out: IC50 HDAC2",< 500 nM
same,IC50,"[10]; Table 5, read-out: IC50 HDAC2",30 to 300 nM
same,IC50,"[10]; Table 6, read-out: IC50 HDAC subtype 2",141 nM
same,IC50,[11],> 30000 nM
